According to the supplement of paper PMC10307832:

Assays:
Assay in all cases: relative viability (nuclei count vs DMSO), 5 days (fraction); higher = more cells survive
RAF265 + Navitoclax = compound: Cn1c(Nc2ccc(C(F)(F)F)cc2)nc2cc(Oc3ccnc(-c4ncc(C(F)(F)F)[nH]4)c3)ccc21 [RAF265] + CC1(C)CCC(c2ccc(Cl)cc2)=C(CN2CCN(c3ccc(C(=O)NS(=O)(=O)c4ccc(N[C@H](CCN5CCOCC5)CSc5ccccc5)c(S(=O)(=O)C(F)(F)F)c4)cc3)CC2)C1 [Navitoclax] (partner 0.5 µM)
Procedure, shortened: (§1)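 Lung cancer cell lines were seeded in 1536-well plates and dosed by pin tool the next day, with either a single drug or a fixed anchor-drug dose combined with five library-drug doses (not always all listed) spaced in √10 steps. Five days later, one step fixed the cells and stained their nuclei (final 0.05% Triton X-100, 1% formaldehyde, 1 ug/ml Hoechst), and nuclei were counted on 4× images. Relative viability is the nuclei count in treated wells divided by the count in vehicle wells, and each value is the median of duplicate plates.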

RAF265 + Phenformin = compound: Cn1c(Nc2ccc(C(F)(F)F)cc2)nc2cc(Oc3ccnc(-c4ncc(C(F)(F)F)[nH]4)c3)ccc21 [RAF265] + N=C(N)NC(=N)NCCc1ccccc1 [Phenformin] (partner 250 µM)
Procedure, shortened: as §1

IPA-3 + Crizotinib = compound: C1=CC=C2C(=C1)C=CC(=C2SSC3=C(C=CC4=CC=CC=C43)O)O [IPA-3] + C[C@@H](Oc1cc(-c2cnn(C3CCNCC3)c2)cnc1N)c1c(Cl)ccc(F)c1Cl [Crizotinib] (partner 1 µM)
Procedure, shortened: as §1

IPA-3 + Bortezomib = compound: C1=CC=C2C(=C1)C=CC(=C2SSC3=C(C=CC4=CC=CC=C43)O)O [IPA-3] + CC(C)C[C@H](NC(=O)[C@H](Cc1ccccc1)NC(=O)c1cnccn1)B(O)O [Bortezomib] (partner 0.002 µM)
Procedure, shortened: as §1

UMC-11
relative viability (RAF265 + Navitoclax; first compound 0.01 µM): 0.316 | relative viability (RAF265 + Navitoclax; first compound 0.03162 µM): 0.326 | relative viability (RAF265 + Navitoclax; first compound 0.1 µM): 0.299 | relative viability (RAF265 + Navitoclax; first compound 0.3162 µM): 0.322 | relative viability (RAF265 + Navitoclax; first compound 1 µM): 0.327 | relative viability (RAF265 + Phenformin; first compound 0.01 µM): 0.354 | relative viability (RAF265 + Phenformin; first compound 0.03162 µM): 0.332 | relative viability (RAF265 + Phenformin; first compound 0.1 µM): 0.32 | relative viability (RAF265 + Phenformin; first compound 0.3162 µM): 0.318 | relative viability (RAF265 + Phenformin; first compound 1 µM): 0.259 | relative viability (IPA-3 + Crizotinib; first compound 0.2 µM): 0.605 | relative viability (IPA-3 + Crizotinib; first compound 0.6325 µM): 0.524 | relative viability (IPA-3 + Crizotinib; first compound 2 µM): 0.798 | relative viability (IPA-3 + Crizotinib; first compound 6.325 µM): 0.579 | relative viability (IPA-3 + Crizotinib; first compound 20 µM): 0.673 | relative viability (IPA-3 + Bortezomib; first compound 0.2 µM): 0.923 | relative viability (IPA-3 + Bortezomib; first compound 0.6325 µM): 0.767 | relative viability (IPA-3 + Bortezomib; first compound 2 µM): 0.845 | relative viability (IPA-3 + Bortezomib; first compound 6.325 µM): 0.726 | relative viability (IPA-3 + Bortezomib; first compound 20 µM): 0.986
